Test results taken from ChEMBL document CHEMBL1201862, “PubChem BioAssay data set” (2004).
Calls of active or inactive are those of the source.

Legend:
[1] = Counterscreen for inhibitors of Trypanosoma brucei methionyl tRNA synthetase (MetRS): Luminescence-based cell-based high throughput dose response assay to identify compounds that are cytotoxic to Jurkat human T lymphocyte cells.; type: functional
[2] = target: T1, Microphthalmia-associated transcription factor (Homo sapiens, UniProt O75030); test: TRPM1 promoter luciferase signal decrease, dose response, MITF inhibitor project, cell-based, SK-MEL-5, cherry-picked, set 3 (AID 493073); type: functional
T1 sequence (O75030 whole entry): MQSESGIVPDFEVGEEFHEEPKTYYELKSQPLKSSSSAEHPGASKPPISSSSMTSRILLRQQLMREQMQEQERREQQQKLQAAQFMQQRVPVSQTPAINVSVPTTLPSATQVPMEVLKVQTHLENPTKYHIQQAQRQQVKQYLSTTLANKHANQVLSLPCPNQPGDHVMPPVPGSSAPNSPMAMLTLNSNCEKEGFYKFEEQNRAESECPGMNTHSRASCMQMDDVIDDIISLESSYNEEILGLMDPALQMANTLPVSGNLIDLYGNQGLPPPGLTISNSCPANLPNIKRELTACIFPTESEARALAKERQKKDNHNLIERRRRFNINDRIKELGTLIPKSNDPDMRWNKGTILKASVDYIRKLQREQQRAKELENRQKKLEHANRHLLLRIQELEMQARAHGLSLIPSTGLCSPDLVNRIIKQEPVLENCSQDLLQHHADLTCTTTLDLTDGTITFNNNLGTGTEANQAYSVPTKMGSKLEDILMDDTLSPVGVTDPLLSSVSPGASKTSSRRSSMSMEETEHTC

[3] = Shn3 3'UTR reporter inhibitors, dose response, cell-based, Clone20 osteoblasts, firefly luciferase, cherry-picked (AID 624132); type: functional;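 note: firefly luciferase luminescence from reporter carrying the Shn3 3'UTR in osteoblasts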
[4] = HepG2 cell cytotoxicity, dose response, cytotoxicity control for Shn3 inhibitor project, CellTiter-Glo, cherry-picked (AID 624134); type: functional, cell-based
[5] = target: Photoreceptor-specific nuclear receptor (Homo sapiens, UniProt Q9Y5X4); type: functional, cell-based;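 note: CHO-S cells with Gal4-NCOR and VP16-NR2E3 two-hybrid luciferase reporter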
[6] = target: T2, Low molecular weight phosphotyrosine protein phosphatase (Homo sapiens, UniProt P24666); type: functional; conditions: read-out: IC50_Mean
T2 sequence (P24666 whole entry): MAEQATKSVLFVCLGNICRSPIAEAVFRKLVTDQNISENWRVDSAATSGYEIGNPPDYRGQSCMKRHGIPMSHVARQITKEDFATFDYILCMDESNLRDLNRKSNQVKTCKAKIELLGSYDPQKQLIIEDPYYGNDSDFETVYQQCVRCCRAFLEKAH

[7] = target: T2, Low molecular weight phosphotyrosine protein phosphatase; type: functional; conditions: read-out: IC50_Mean; remark: listed apart in the source
[8] = target: DNA (cytosine-5)-methyltransferase 1 (Homo sapiens, UniProt P26358); test: DNMT1 methyltransferase inhibitors, confirmation, biochemical, fluorescent molecular beacon (AID 602386); type: functional
[9] = target: 26S proteasome non-ATPase regulatory subunit 14 (Homo sapiens, UniProt O00487); test: inhibition of proteasome subunit RPN11 – biochemical, fluorescence polarization, uHTS hits, confirmation (AID 602368); type: functional
[10] = target: 72 kDa type IV collagenase (Homo sapiens, UniProt P08253); test: Dose Response validation of uHTS RPN11 inhibitor hits using a MMP-2 Fluorescence assay.; type: functional
[11] = target: Prothrombin (Bos taurus, UniProt P00735); test: thrombin inhibition, dose response, biochemical, fluorescence polarization, uHTS hits (AID 602369); type: functional
[12] = target: T3, Rac GTPase-activating protein 1 (Homo sapiens, UniProt Q9H0H5); test: MgcRacGAP GTPase-activating activity inhibitors, confirmation, biochemical, ADP Hunter fluorescence, primary and confirmatory (AID 624330); type: functional
T3 sequence (Q9H0H5 whole entry): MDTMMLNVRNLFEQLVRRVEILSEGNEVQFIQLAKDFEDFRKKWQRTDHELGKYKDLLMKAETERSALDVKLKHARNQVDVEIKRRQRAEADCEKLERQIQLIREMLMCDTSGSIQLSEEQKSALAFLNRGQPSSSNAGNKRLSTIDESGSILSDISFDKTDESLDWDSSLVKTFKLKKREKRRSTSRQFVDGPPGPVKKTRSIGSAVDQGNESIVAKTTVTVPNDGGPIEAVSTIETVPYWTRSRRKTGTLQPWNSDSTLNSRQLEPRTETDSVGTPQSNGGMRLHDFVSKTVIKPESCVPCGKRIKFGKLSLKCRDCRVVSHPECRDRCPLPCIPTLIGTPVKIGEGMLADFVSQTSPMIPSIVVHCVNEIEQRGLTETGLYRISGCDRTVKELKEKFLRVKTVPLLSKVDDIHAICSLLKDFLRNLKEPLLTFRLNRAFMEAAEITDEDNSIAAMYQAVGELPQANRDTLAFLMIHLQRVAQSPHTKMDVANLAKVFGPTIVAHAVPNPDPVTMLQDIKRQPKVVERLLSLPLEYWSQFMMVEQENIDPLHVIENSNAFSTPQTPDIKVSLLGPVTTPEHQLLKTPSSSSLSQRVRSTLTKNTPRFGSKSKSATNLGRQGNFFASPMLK

[13] = target: T4, Histone-lysine N-methyltransferase NSD2 (Homo sapiens, UniProt O96028); type: biochemical
T4 sequence (O96028 whole entry): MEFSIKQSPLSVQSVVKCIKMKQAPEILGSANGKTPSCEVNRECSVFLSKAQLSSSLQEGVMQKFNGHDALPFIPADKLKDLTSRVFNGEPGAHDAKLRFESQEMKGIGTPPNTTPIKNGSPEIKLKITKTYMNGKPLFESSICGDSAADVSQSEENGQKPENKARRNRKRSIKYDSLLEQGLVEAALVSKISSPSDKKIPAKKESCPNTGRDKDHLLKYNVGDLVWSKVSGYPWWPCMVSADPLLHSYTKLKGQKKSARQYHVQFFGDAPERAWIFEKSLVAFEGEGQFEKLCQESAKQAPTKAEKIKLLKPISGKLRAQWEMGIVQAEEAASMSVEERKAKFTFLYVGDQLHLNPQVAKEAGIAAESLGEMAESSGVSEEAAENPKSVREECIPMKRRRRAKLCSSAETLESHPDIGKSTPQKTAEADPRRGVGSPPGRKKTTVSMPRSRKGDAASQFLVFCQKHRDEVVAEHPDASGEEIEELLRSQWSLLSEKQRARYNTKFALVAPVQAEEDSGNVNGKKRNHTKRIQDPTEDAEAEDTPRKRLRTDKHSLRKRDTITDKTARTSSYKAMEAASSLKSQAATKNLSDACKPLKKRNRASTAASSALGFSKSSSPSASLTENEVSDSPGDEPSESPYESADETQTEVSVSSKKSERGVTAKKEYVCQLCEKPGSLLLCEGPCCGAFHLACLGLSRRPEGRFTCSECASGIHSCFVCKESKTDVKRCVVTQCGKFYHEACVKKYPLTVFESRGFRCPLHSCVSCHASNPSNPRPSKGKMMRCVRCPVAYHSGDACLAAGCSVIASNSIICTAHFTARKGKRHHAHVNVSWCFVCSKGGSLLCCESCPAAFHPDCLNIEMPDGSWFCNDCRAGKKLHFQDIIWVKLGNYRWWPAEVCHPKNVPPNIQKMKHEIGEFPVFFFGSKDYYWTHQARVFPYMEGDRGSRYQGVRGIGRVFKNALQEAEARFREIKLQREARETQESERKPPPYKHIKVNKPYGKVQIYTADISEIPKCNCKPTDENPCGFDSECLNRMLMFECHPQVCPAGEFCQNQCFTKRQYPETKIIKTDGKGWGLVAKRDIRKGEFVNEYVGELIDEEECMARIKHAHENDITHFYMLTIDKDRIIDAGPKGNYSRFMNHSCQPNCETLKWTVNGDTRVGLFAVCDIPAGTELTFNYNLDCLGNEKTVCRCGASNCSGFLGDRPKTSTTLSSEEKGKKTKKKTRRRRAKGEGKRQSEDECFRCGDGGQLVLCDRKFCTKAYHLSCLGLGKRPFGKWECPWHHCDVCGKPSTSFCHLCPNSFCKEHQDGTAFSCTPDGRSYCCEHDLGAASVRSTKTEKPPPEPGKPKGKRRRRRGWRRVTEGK

[14] = target: Nuclear receptor subfamily 5 group A member 2 (Homo sapiens, UniProt O00482); type: functional, cell-based;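 note: HEK293T cells transfected with LRH-1 and a StAR promoter luciferase reporter; potency for inhibitors that lower LRH-1 driven reporter light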
[15] = target: Steroidogenic factor 1 (Homo sapiens, UniProt Q13285); test: Counterscreen for inverse agonists of the liver receptor homolog-1 (LRH-1; NR5A2): Luminescence-based cell-based high throughput dose response assay to identify inverse agonists of the Steroidogenic Factor 1 Nuclear Receptor (SF1; NR5A1).; type: functional
[16] = StAR promoter reporter inhibition counter-screen, dose response, counter-screen for LRH-1 inverse agonist project, cell-based, luminescence, luciferase reporter (AID 651969); type: functional
[17] = target: T5, Apoptotic protease-activating factor 1 (Homo sapiens, UniProt O14727); test: SAR analysis of small molecule Activators of Apaf-1 in a Fluorescent assay.; type: functional; conditions: read-out: EC50_Mean;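 note: caspase-3 cleavage of fluorogenic Rh110 DEVD substrate downstream of apoptosome activation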
T5 sequence (O14727 whole entry): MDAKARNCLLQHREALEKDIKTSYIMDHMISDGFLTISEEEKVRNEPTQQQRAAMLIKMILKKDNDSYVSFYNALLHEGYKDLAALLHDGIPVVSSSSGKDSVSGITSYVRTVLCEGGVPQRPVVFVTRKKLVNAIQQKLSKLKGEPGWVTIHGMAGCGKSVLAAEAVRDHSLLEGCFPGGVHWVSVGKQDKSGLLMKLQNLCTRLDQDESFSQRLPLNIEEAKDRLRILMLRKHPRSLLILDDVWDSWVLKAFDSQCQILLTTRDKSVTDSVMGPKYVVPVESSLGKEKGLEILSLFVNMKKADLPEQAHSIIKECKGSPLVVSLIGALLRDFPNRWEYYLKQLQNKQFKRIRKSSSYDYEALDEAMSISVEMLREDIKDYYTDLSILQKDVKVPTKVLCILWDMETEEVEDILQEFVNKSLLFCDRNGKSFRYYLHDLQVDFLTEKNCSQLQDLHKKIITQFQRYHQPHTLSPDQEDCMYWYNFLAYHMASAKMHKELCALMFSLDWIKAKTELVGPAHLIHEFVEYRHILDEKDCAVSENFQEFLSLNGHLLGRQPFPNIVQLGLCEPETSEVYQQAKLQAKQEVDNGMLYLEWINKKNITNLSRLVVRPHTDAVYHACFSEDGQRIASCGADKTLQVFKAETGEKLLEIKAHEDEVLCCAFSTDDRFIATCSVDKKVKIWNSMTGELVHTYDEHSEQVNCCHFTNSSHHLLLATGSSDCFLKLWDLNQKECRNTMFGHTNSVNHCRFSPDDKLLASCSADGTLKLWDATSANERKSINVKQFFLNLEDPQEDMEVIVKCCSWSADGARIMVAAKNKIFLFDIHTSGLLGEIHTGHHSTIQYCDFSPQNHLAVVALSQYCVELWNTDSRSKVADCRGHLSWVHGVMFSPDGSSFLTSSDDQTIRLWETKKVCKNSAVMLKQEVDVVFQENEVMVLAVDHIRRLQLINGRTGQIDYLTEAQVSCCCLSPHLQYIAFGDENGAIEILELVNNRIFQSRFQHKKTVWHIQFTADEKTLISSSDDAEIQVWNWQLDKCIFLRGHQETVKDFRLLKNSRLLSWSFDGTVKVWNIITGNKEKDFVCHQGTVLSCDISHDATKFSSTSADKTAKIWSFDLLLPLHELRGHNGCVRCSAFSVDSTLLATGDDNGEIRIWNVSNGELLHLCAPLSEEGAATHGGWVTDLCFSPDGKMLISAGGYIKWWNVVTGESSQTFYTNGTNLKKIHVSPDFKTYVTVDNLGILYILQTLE

[18] = target: T6, Interleukin-8 (Homo sapiens, UniProt P10145); test: Dose Response confirmation of uHTS small molecule hits for cystic fibrosis induced NFkb Inhibitors in a TNFa-induced IL8 counterscreen.; type: functional; conditions: read-out: IC50_Mean
T6 sequence (P10145 whole entry): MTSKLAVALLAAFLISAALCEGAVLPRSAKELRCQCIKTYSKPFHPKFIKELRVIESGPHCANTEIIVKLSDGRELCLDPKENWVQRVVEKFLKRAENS

[19] = target: T6, Interleukin-8; test: Dose Response confirmation of uHTS small molecule hits for cystic fibrosis induced NFkb Inhibitors in a PAF-induced IL8 counterscreen.; type: functional; conditions: read-out: IC50_Mean
[20] = target: Diacylglycerol lipase-beta (Mus musculus, UniProt Q91WC9); test: Late stage assay provider results from the probe development effort to identify inhibitors of diacylglycerol lipase, beta (DAGLb): fluorescence-based dose-response biochemical gel-based competitive Activity-Based Protein Profiling (ABPP) inhibition of DAGLb in vitro.; type: functional
[21] = target: T7, ATP-dependent translocase ABCB1 (Homo sapiens, UniProt P08183); test: ABCG2 efflux pump inhibitor potency, dose response, Ig-MXP3 cells, JC-1, flow cytometry, set 2 (AID 504566); type: functional; conditions: read-out: EC50_MICROM_;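 note: flow cytometry median green fluorescence of retained JC-1 dye; potency of efflux pump inhibition measured as rising substrate retention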
[22] = target: T7, ATP-dependent translocase ABCB1; test: ABCB1 efflux inhibitor potency, dose response, Jurkat-DNR cells, JC-1, flow cytometry, set 2 (AID 504569); type: functional; conditions: read-out: EC50_MICROM_;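 note: potency of pump inhibitors that raise cellular JC-1 green fluorescence up to the nicardipine level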

T7 sequence (P08183 whole entry): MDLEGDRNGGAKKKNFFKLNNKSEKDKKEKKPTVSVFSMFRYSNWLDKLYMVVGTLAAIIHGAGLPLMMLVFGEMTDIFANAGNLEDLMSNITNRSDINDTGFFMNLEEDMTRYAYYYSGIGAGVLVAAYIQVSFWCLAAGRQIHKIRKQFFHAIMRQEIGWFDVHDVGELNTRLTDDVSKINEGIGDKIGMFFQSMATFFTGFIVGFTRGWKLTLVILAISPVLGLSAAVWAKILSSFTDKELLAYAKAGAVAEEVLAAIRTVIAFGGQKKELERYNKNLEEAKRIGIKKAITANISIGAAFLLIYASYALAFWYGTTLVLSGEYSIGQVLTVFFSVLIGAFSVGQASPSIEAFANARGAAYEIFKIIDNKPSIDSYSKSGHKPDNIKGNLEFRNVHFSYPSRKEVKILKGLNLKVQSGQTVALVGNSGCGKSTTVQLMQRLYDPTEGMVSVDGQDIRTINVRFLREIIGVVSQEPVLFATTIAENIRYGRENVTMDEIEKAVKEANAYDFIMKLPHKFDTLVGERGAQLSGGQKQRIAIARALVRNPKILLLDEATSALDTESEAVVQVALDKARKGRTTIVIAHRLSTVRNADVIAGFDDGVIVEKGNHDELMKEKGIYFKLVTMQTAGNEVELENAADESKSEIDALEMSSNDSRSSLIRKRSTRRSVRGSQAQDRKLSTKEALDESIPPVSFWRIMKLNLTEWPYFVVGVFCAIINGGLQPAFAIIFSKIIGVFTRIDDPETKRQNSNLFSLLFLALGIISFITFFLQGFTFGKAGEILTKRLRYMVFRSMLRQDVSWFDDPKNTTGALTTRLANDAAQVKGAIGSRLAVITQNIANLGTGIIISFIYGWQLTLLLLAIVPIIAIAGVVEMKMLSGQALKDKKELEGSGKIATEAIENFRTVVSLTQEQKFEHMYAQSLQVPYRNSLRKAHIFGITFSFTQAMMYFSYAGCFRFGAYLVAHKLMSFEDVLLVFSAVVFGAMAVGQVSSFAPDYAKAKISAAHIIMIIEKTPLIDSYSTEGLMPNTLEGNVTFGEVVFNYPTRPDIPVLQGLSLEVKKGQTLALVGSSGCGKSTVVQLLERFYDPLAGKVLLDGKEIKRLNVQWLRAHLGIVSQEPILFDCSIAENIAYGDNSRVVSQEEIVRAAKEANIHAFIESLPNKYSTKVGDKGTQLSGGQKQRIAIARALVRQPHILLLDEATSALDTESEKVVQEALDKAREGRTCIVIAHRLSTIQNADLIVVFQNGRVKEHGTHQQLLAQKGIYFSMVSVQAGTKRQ
Chain of Photoreceptor-specific nuclear receptor (Q9Y5X4 whole entry, the tested form may be a part): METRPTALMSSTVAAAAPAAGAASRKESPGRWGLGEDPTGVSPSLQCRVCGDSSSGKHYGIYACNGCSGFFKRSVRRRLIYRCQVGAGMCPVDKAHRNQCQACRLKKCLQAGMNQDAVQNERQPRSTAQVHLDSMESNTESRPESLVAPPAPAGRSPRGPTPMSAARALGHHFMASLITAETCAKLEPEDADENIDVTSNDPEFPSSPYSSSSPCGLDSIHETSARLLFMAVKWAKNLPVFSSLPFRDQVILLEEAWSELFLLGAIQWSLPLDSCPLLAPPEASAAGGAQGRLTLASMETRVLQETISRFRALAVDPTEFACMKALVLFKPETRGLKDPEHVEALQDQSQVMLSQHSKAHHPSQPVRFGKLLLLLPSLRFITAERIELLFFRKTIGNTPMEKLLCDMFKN
Chain of 26S proteasome non-ATPase regulatory subunit 14 (O00487 whole entry): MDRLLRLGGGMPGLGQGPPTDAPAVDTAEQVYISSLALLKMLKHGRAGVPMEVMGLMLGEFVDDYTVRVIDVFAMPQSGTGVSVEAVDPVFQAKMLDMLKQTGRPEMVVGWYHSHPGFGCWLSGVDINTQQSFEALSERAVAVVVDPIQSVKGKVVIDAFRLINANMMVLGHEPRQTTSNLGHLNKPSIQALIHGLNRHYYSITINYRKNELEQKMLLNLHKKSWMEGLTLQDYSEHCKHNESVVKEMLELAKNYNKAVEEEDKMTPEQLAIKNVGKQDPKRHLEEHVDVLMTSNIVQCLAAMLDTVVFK
Chain of DNA (cytosine-5)-methyltransferase 1 (P26358 whole entry): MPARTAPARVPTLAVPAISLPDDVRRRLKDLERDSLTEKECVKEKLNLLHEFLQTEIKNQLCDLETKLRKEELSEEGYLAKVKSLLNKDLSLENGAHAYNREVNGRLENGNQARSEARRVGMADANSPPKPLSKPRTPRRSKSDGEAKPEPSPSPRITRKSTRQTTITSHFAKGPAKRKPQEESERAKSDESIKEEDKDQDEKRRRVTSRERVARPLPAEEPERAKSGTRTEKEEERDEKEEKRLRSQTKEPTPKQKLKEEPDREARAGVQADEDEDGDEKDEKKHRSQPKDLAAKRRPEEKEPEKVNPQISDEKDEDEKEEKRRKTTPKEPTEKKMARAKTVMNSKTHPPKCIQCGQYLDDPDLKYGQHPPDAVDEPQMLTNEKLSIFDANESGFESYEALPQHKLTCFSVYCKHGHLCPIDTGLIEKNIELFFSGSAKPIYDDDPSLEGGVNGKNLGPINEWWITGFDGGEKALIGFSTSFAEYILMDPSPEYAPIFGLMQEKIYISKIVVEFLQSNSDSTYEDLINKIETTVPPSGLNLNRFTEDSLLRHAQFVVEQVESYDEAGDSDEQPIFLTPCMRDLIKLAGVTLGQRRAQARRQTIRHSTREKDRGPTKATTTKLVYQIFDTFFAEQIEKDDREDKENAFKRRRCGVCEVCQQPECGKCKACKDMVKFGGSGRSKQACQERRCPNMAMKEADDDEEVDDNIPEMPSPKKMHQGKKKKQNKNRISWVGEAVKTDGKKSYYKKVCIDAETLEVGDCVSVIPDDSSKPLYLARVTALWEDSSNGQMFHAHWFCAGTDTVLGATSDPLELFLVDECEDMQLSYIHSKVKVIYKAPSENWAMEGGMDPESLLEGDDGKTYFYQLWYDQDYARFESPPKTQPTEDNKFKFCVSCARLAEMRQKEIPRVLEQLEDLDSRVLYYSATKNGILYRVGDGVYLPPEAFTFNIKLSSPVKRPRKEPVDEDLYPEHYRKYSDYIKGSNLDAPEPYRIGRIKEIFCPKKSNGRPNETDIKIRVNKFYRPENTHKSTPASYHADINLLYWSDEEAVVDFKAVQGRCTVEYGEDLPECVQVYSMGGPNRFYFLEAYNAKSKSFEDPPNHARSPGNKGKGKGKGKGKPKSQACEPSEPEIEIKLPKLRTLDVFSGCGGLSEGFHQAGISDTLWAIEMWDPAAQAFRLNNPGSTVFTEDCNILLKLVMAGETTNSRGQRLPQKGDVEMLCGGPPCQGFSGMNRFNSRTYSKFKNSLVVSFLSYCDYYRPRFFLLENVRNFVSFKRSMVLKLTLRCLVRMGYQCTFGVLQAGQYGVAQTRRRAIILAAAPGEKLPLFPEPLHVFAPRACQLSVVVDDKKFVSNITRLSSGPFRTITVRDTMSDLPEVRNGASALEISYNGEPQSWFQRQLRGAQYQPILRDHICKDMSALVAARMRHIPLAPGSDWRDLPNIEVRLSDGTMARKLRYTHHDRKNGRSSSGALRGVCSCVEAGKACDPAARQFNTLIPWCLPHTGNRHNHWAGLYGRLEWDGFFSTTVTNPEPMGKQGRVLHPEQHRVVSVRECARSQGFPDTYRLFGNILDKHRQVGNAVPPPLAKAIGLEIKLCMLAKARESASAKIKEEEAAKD
Chain of Nuclear receptor subfamily 5 group A member 2 (O00482 whole entry): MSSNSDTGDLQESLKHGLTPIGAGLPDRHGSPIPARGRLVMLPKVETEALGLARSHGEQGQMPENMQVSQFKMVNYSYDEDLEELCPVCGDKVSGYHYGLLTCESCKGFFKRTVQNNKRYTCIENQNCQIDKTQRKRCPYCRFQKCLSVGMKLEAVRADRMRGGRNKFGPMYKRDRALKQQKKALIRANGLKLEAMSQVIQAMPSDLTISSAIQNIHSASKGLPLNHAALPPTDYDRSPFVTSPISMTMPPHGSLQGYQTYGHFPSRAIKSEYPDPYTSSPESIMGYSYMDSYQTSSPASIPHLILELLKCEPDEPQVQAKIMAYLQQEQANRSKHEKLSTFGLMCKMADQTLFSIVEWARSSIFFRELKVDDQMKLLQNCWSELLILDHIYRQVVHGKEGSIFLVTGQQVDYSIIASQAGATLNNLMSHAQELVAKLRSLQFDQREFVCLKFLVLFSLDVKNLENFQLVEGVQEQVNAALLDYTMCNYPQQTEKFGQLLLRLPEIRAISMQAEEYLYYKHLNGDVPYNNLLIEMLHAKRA
Chain of 72 kDa type IV collagenase (P08253 whole entry): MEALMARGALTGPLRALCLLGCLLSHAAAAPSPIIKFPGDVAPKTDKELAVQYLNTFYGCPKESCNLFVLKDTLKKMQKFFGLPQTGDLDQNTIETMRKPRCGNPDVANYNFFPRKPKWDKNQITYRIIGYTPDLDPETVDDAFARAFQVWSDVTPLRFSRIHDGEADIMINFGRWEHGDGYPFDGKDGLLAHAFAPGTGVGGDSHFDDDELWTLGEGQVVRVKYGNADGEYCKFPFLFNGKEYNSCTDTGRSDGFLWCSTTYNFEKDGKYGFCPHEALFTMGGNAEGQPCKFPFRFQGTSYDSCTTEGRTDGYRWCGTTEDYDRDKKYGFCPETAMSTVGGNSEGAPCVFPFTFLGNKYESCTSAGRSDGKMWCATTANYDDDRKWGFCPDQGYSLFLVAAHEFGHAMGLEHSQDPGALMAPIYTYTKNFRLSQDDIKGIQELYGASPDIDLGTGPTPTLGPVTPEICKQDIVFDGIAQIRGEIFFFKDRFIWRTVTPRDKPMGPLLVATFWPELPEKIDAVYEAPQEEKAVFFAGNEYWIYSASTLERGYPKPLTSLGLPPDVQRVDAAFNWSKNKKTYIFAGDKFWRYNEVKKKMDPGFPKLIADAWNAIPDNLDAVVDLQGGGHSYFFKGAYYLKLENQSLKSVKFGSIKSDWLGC

## COc1ccc(N=C(S)N2CCC(c3nc4cc(Cl)ccc4[nH]3)CC2)c(OC)c1
[1]
  IC50: 83.3 µM (inactive)

## Cc1cc(C(=O)COc2cccnc2[N+](=O)[O-])c(C)n1-c1ccccc1
[2]
  AC50: 1.48 µM (active)
[3]
  AC50: 34.8 µM (active)
[4]
  AC50: > 70 µM (inactive)
[5]
  IC50: 517 nM (active)

## Fc1ccccc1-c1nc(NC2CCCC2)c2ccccc2n1
[6]
  IC50: 13.1 µM (active)
[7]
  IC50: 7.48 µM (active)

## CC1=NN(c2ccccc2)C(=O)C1/C=C1\NC(=S)NC1=O (configuration not stated)
[8]
  IC50: 8.39 µM (active)
[9]
  IC50: 32.4 µM (active)
[10]
  IC50: > 100 µM (inactive)
[11]
  IC50: 52.8 µM (active)
[12]
  IC50: 238 µM (active)
[13]
  AC50: 4.16 µM (active)

## O=C(CN1C(=O)NC2(CCCCC2)C1=O)NCCc1c[nH]c2ccccc12
[14]
  IC50: 10.3 µM (inactive)
[15]
  IC50: 5.36 µM (active)
[16]
  IC50: 35.9 µM (inactive)

## Cc1ccc(NCC(C)C(=O)O)cc1C (configuration not stated)
[17]
  EC50: > 100 µM (inactive)

## c1cc(-c2cnc3cccnn23)c2cccnc2c1
[18]
  IC50: 56.5 µM (inactive)
[19]
  IC50: 14.4 µM (inactive)

## O=C(N1CCCCC1Cc1ccccc1)n1cc(-c2ccc(OC(F)(F)F)cc2)nn1 (configuration not stated)
[20]
  IC50: 52 nM (active)

## COc1ccccc1-c1cc2nc(-c3ccccc3)cc(N3CCN(C(=O)c4ccccc4)CC3)n2n1
[21]
  EC50: 720 nM (active)
[22]
  EC50: 2.87 µM (active)
